Reference: US10501479B2, “Benzenesulfonyl-asymmetric ureas and medical uses thereof” (HELSINN HEALTHCARE SA, priority 2016, dated 2019)
pEC50, pIC50: −log10 of the molar value. “And” between values parts separate entries of the source, which are not always exact repeats. Equal values may be shown once. Read-outs that look alike come from different tables or passages of the source.

How the values were obtained:
[1] = biological target: T1, GHSR-1a (HEK293/GHSR1a cell line) (Homo sapiens, UniProt Q92847); experiment: Ghrelin antagonist potency (IC50) with calcium FLIPR assay, ghrelin 10 nM; format: cell-based
T1 construct: expressed in transfected cells; host or cells: HEK293/GHSR1a cell line
How it was run: (§1)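 Potency values were estimated from dose-response curves of relative fluorescence, with calcium followed for 2 minutes after additions at t=20 sec. Agonism was tested with compound alone. Antagonism was tested with compound plus 10 nM ghrelin and scored as a reduction of the ghrelin signal.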

[2] = Animal PK study in mouse via i.v., p.o. and s.c. administration; format: in vivo
Method: All treated animals received a single dose of a test compound (either through i.v., p.o., or s.c. administration) according to the regimen shown in the following table:
For oral dose groups, appropriate amount of test compound was prepared in the following formulation carrier: 1% DMSO (increase to 5% maximum if necessary) and 0.5% Methycellulose. Each mouse or rat received by oral gavage 10 mL/kg of the formulation mixture.
For i.v. and s.c dose groups, appropriate amount of test compound was dissolved in 1% DMSO (increase to 5% maximum if necessary), 99% of 20% HP-β-Cyclodextron (w/v). The pH was adjusted accordingly. Each mouse or rat received 5 mL/kg of the formulation mixture. i.v. dose was administered by tail vein injection. Subcutaneous injection was administered over the shoulders, into the loose skin over the neck. At designated time points (e.g., i.v. and s.c.: 0.083, 0.25, 0.5, 1, 2, 4, 8 and 24 hrs; p.o.: 0.25, 0.5, 1, 2, 4, 8 and 24 hrs), systemic samples of blood (50 μL in mouse or 500 μL in rat) were collected by puncture (submandibular vein in mouse or jugular vein in rat) into vacutainers containing EDTA-K2 as anti-coagulant. The blood was centrifuged at 6000 rpm for 8 min at 4° C. to obtain plasma. All plasma samples were stored at −20° C. All plasma samples were added to acetonitrile for protein precipitation and quantitatively analyzed by LC-MS/MS.

[3] = biological target: T2, recombinant human ghrelin receptor (HEK293/GRLN) (Homo sapiens, UniProt Q92847); experiment: Ghrelin inverse agonist potency (EC50) with IP-1 (IP-One HTRF) assay; format: cell-based; settings: IP-1 assay
T2 construct: expressed in transfected cells
How it was run: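 HEK293/GRLN cells were seeded 18-22 hours before the test, then exposed to compound in stimulation buffer for 1 hour at 37° C, 5% CO2. IP-1 was detected by IP-One HTRF (IP1-d2 plus Tb-cryptate, 1 hour RT), reading 620 and 665 nm; the inverse agonist EC50 was derived from this.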

[4] = Metabolic stability in mouse liver microsomes; format: in vitro ADME
How it was run: (§2)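 Depletion of test compound in NADPH-fortified liver microsomes (pH 7.4 phosphate buffer, 37 °C) is followed over 90 min. Remaining compound in quenched samples is quantified by LC-MS/MS against the time-zero level.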

[5] = Metabolic stability in human liver microsomes; format: in vitro ADME
How it was run: as §2

[6] = Animal PK study in rat via i.v., p.o. and s.c. administration; format: in vivo; settings: for half-life: plasma, ip, read-out: PK T1/2 i.p.; for half-life / PK CL i.p. / PK Vd i.p.: rat (R), i.p.
[7] = biological target: T1, GHSR-1a (HEK293/GHSR1a cell line); experiment: Ghrelin agonist potency (EC50) with calcium FLIPR assay; format: cell-based
How it was run: as §1

[8] = Metabolic stability in rat liver microsomes; format: in vitro ADME
Method: Metabolic Stability Study
The metabolic stability of compounds in human, dog, rat and mouse liver microsomes was performed according the experimental conditions reported below:
• a) Prepare the following 5 stock solutions: • 1. Test compound stock solutions: dilute 10 mM solution of dextromethorphan (Dtr) in DMSO, 10 mM solution of diphenhydramine (DPA) in DMSO, 10 mM solution of omeprazole (Ome) in DMSO, 10 mM solution of verapamil (Ver) in DMSO, and 10 mM of an inverse agonist compound in DMSO to 0.25 mM solution each with acetonitrile/water (70/30). • 2. Buffer: 100 mM potassium phosphate Buffer (PBS) at pH 7.4 • 3. Liver microsomes (20 mg/ml): Thaw in 37° C. water bath quickly • 4. 2000 μL: of NADPH regenerating system (1.3 mM). Place this system on ice before use:
• 5. […] The test compound concentration in the wells, measured by LC-MS/MS, represents the concentration at time=0. • f) To determine the test compound concentration when t≠0, pre-incubate the NADPH regenerating system and the incubation plate containing the remaining 320 μL of incubation mixture (microsomes protein and test compound) for 5 minutes at 37° C. • g) Start the incubation reaction by adding 80 μL NADPH regenerating system to each well containing the remaining 320 μL incubation mixture. • h) After 10 min., 30 min., and 90 min. of incubation at 37° C., transfer 100 μL of the incubation mixture (microsomes protein, test compound, and NADPH) into the wells of a stop plate pre-filled with 300 μL of the cold quench solution. Shake well. • i) Centrifuge the stop plate at 5000×g for 10 minutes. Collect and dilute the supernatant 3 times with distilled water. Sample and analyze the test compound concentration for all the wells by LC-MS/MS. Animal PK Studies via i.v. (intravenous), p.o. (orally) and s.c. (subcutaneous) administrations

[9] = ghrelin antagonist potency, read-out: IC50 (Activity)
[10] = inverse agonist potency, read-out: EC50 (Activity)
[11] = ghrelin antagonist potency, read-out: Activity IC50
[12] = ghrelin inverse agonist potency, read-out: Activity EC50
[13] = ghrelin agonist potency, read-out: Activity EC50/EMax

T2 sequence (Q92847 whole entry): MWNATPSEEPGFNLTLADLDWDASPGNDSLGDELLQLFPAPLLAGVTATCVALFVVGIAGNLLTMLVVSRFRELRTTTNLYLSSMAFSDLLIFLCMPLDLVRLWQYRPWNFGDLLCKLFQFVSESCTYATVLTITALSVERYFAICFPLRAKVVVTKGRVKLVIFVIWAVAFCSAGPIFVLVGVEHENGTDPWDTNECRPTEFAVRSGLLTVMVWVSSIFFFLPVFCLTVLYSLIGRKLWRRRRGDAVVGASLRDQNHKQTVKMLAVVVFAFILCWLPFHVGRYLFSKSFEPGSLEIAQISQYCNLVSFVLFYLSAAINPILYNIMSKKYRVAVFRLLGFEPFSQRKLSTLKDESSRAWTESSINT
T1 sequence (Q92847 whole entry): as above

SMILES	pIC50 [1, 9]	PK F [2]	PK CLiv ([2]; i.v.) [mL/min/kg]	PK Vdiv ([2]; i.v.) [L/kg]	PK t1/2iv ([2]; i.v.)	PK CLpo ([2]; p.o.) [mL/min/kg]	PK Vdpo ([2]; p.o.)	PK t1/2po ([2]; p.o.)	pEC50 [3, 10]	Metabolic Stability Study M = mouse [4]	Metabolic Stability Study H = human [5]	pIC50 [1, 11]	pEC50 [3, 12]	pEC50 [7, 13]	Metabolic Stability Study R = rat [8]	further results
C[C@H](NC(=O)Nc1ccc(S(=O)(=O)Cc2ccc3c(c2)CCNC3)cc1)c1cccc(Cl)c1Cl [H1027, (S)-1-(1-(2,3-dichlorophenyl)ethyl)-3-(4-(((1,2,3,4-tetrahydroisoquinolin-6-yl)methyl)sulfonyl)phenyl)urea]	8.60	F = 0.72 (M); %	11.8	1.64	1.61 (M); h	1428	345 (M); L/Kg	2.79 (M); h	8.79	H = <10 M = <10 R = not reported D = not reported μL/min/mg	H = <10 M = <10 R = not reported D = not reported μL/min/mg					PK F ([6]; rat): 57.14 (R) %; PK CLiv ([6]; rat, i.v.): 205.7 mL/min/kg; PK Vdiv ([6]; rat, i.v.): 168.2 L/kg; PK t1/2iv ([6]; rat, i.v.): 10.2 (R) h; PK CLpo ([6]; rat, p.o.): 416.3 mL/min/kg; PK Vdpo ([6]; rat, p.o.): 80.4 (R) L/Kg; PK t1/2po ([6]; rat, p.o.): 2.21 (R) h
O=C(NCc1ccccc1Cl)Nc1ccc(S(=O)(=O)Cc2ccc3c(c2)CCNC3)cc1 [H1039, 1-(2-chlorobenzyl)-3-(4-(((1,2,3,4-tetrahydroisoquinolin-6-yl)methyl)sulfonyl)phenyl)urea]	6.95	0.6%	42.5	11.7	3.18 h	5573	898 L/kg	1.86 h	7.48	13.5 µL/min/mg	< 10 µL/min/mg					
CC(NC(=O)Nc1ccc(S(=O)(=O)Cc2ccc3c(c2)CNC3)cc1)c1cccc2ccccc12.Cl (centres unmarked) [H1149, 1-(4-((isoindolin-5-ylmethyl)sulfonyl)phenyl)-3-(1-(naphthalen-1-yl)ethyl)urea]	8.32	0.86%	16.3	1.22	0.87 h	1792	272 L/kg	1.75 h	8.77 and 8.62	24.3 µL/min/mg	21.1 µL/min/mg					
CC(NC(=O)Nc1ccc(S(=O)(=O)Cc2ccc3c(c2)CN(CC2CC2)C3)cc1)c1ccccc1 (centres unmarked) [H1220, 1-(4-(((2-(cyclopropylmethyl)isoindolin-5-yl)methyl)sulfonyl)phenyl)-3-(1-phenylethyl)urea]	8.44	4.71%	50.8	3.08	0.7 h	1030	78.7 L/kg	0.89 h	7.52	248 µL/min/mg	183.8 µL/min/mg					
CC(NC(=O)Nc1ccc(S(=O)(=O)Cc2ccc3c(c2)CN(C)C3)cc1O)c1ccccc1 (centres unmarked) [H1448, 1-(2-hydroxy-4-(((2-methylisoindolin-5-yl)methyl)sulfonyl)phenyl)-3-(1-phenylethyl)urea]		1.90%								20.8 µL/min/mg	28 µL/min/mg					pIC50 ([1]; HEK293/GHSR1a, ghrelin 10 nM, read-out: Activity IC50 (ghrelin antagonist potency)): 7.52; PK CL p.o. ([2]; p.o.): 4243 mL/min/kg; PK Vd p.o. ([2]; p.o.): 242.2 L/kg; Vd ([2]; plasma, iv, 5 mg/kg): 9.26 L/kg; clearance ([2]; plasma, iv, 5 mg/kg, i.v., read-out: PK CL i.v.): 80.5 mL/min/kg; half-life ([2]; plasma, iv, 5 mg/kg, i.v., read-out: PK t1/2 i.v.): 1.33 h; half-life ([2]; plasma, po, 10 mg/kg, p.o., read-out: PK t1/2 p.o.): 0.66 h; pEC50 ([3]; HEK293/GRLN, read-out: Activity EC50 (ghrelin inverse agonist potency)): 8.48; pEC50 ([7]; HEK293/GHSR1a, read-out: Activity EC50/EMax: EC50 (ghrelin agonist potency)): < 4.52
COc1cc(NC(=O)NC(C)c2ccccc2)ccc1S(=O)(=O)Cc1ccc2c(c1)CNC2 (centres unmarked) [H1461, 1-(4-((isoindolin-5-ylmethyl)sulfonyl)-3-methoxyphenyl)-3-(1-phenylethyl)urea]										< 10 µL/min/mg	22.0 µL/min/mg	8.10	8.46	< 4.52		half-life [6]: 2.61 h; PK CL i.p. [6]: 38.3 mL/min/kg; PK Vd i.p. [6]: 8.64 L/kg
CC(c1ccccc1)N(O)C(=O)Nc1ccc(S(=O)(=O)Cc2ccc3c(c2)CNC3)cc1 (centres unmarked) [H1472, 1-hydroxy-3-(4-((isoindolin-5-ylmethyl)sulfonyl)phenyl)-1-(1-phenylethyl)urea]												8.22	8.49	< 4.52		half-life [6]: 2.43 h; PK CL i.p. [6]: 36.5 mL/min/kg; PK Vd i.p. [6]: 7.71 L/kg
CC(NC(=O)Nc1ccc(S(=O)(=O)Cc2ccc3c(c2)CCNC3)cc1C(=O)O)c1ccccc1 (centres unmarked) [H1541, 2-(3-(1-phenylethyl)ureido)-5-(((1,2,3,4-tetrahydroisoquinolin-6-yl)methyl)sulfonyl)benzoic acid]											H = <10 R = <10 μL/min/mg	7.14	8.01	< 4.52	H = <10 R = <10 μL/min/mg	
CC(NC(=O)Nc1ccc(S(=O)(=O)Cc2ccc3c(c2)CCNC3)cc1C(=O)O)c1cccc(Cl)c1Cl (centres unmarked) [H1542, 2-(3-(1-(2,3-dichlorophenyl)ethyl)ureido)-5-(((1,2,3,4-tetrahydroisoquinolin-6-yl)methyl)sulfonyl)benzoic acid]											< 10 µL/min/mg	8.77	8.72	< 4.52	13.3 µL/min/mg	
COc1cc(S(=O)(=O)Cc2ccc3c(c2)C(F)CNC3)ccc1NC(=O)N[C@H](C)c1cccc(Cl)c1Cl (stereo partly drawn) [H1543, 1-((R)-1-(2,3-dichlorophenyl)ethyl)-3-(4-(((4-fluoro-1,2,3,4-tetrahydroisoquinolin-6-yl)methyl)sulfonyl)-2-methoxyphenyl)urea]											46.8 µL/min/mg	7.80	7.90	< 4.52	204.6 µL/min/mg	
